The test system of test [1] is monocrotaline model of pulmonary arterial hypertension. The test can be described thus: Rat monocrotaline model of pulmonary arterial hypertension: mean pulmonary pressure. The format is in vivo. The settings on record: female rat, MCT, 50 mg/kg BID gavage Day 7 to Day 28, n = 11. The protocol:
• 1. The experimental trace to be analyzed is opened in Clampfit. • 2. Right atria pressure is recorded for 1 minute • 3. PAP recorded continuously for at least 1 minute or until loss of signal, is used to extract the mean, diastolic, and systolic pulmonary pressure. • 4. The systemic arterial pressure (SAP) recorded continuously is used to extract the mean, diastolic and systolic arterial pressure. • 5. At the end of the hemodynamic parameters recording, the right and left ventricle including the septum and the lung lobes is excised to determine wet weights. • 6. Each parameter is compiled for each group and presented in bar graphs with appropriate statistical analysis.
The appropriate amount of monocrotaline is weighed and ⅓ of the correct volume of 1.0N HCl is added and mixed to ensure monocrotaline solubilisation. The solution is then neutralized with ⅓ of the correct volume of 1.0 N NaOH. The pH of the solution is checked with a pH indicator paper/strip or an electronic pH meter and adjusted to neutral as necessary; the final volume is completed with water for injection to obtain a solution of 20 mg/mL. The monocrotaline solution is injected subcutaneously, over the shoulders, into the loose skin over the neck, to each rat at 3 mL/kg of body weight (dose is 60 mg/kg).
Compound A was administered as a suspension in the vehicle. To reach the required concentrations, compound A was grounded to a fine powder, using a mortar and pestle, and then mixed with 20% (final volume) of vehicle A1 until a suspension was achieved. 80% of vehicle A2 was then added to the suspension under magnetic stirring.
The appropriate amount of Sildenafil is weighed and appropriate volume of distillated water is added to obtain suspension at 5 mg/mL. The suspension is mixed with a stir bar for 30-60 minutes until a homogenous suspension is achieved. Care is taken to maintain a uniform suspension (stirring continuously) whilst doses are being drawn up into gavage syringes. One gavage syringe is filled at a time and administered before filling the next syringe. The solutions are stored refrigerated at 2 to 8° C. and protected from light. The expiration date is set at 7 days after preparation.
Animals from Groups 2 to 5 (see Table 13) receive a single subcutaneous injection of monocrotaline (60 mg/kg) solution on Day 0 and returned to their cages. Animals from Group 1 receive one subcutaneous injection vehicle for MCT on Day 0 and returned to their respective cages.
Treatment with the compound A, sildenafil or vehicle is administered as of Day 7 (Groups 2-5) as scheduled and described in Table 13. The Groups 2-4 receive a single dose per day. The reference group 5 receives sildenafil twice a day. Food and water are given ad libitum. Daily observation of the behaviour and general health status of the animals is done. Weekly body weight is taken.
Surgical Instrumentation and Measurement of Hemodynamic and Functional Parameters in Efficacy Study Animals • 1. On the selected day of surgery, rats are anaesthetized with a mixture of 2 to 2.5% isoflurane USP (Abbot Laboratories, Montreal, Canada) in oxygen, and placed on a heating pad to maintain body temperature. • 2. Rats are tracheotomized and immediately ventilated by means of a positive-pressure rodent respirator set at ≈10 ml/kg bodyweight at a frequency of 65-70 strokes/min. • 3. Lead II ECG contact electrodes is placed on the rat to continuously monitor the ECG during the surgical procedure. • 4. A cannula connected to a pressure transducer is inserted into the left femoral artery to measure the arterial blood pressure. • 5. A cannula connected to a pressure transducer is inserted into the right atria through the right jugular vein to measure the right atria pressure. • 6. The heart is exposed through a sternotomy and a 20GA 1.16 in Insyte is introduced into the right ventricle and rapidly hooked up to a saline filled PE-50 catheter connected to a transducer. • 7. […]

The next test has as its system Sugen hypoxia model. Put plainly: Rat Sugen hypoxia model of pulmonary arterial hypertension: mean pulmonary pressure. Conditions: SuHx, 50 mg/kg BID gavage Day 22 to Day 56. In kind it is in vivo. The protocol: Animals from Groups 2 to 5 (see Table 10) receive a single subcutaneous injection of sugen (20 mg/kg in 2 mL/kg volume) solution (10 mg/mL) on Day 0 and returned to their cages. Animals from Group 1 receive one subcutaneous injection of DMSO at 2 mL/kg (vehicle for sugen) on Day 0 and returned to their respective cages.
Groups 2-5 are placed in cages for which the controlled air is adjusted to receive a FiO2 equivalent to 0.10 (10%) using a mixture of nitrogen and ambient air controlled by the ventilated cage system. They are kept under these hypoxic conditions for 21 days. While in hypoxia, cages are cleaned and changed once a week, exposing the animals to ambient oxygen levels for less than 10 minutes. They are exposed to ambient oxygen levels from Day 22 to Day 56. Group 1 animals remain in cages exposed to ambient oxygen (normoxic) levels for 56 days. The animals are observed on a daily basis for any changes in their behaviour and general health status.
Treatment with the compound A, sildenafil or vehicle is administered as of Day 22 (Groups 2-5) as scheduled and described in Table 10. The Groups 2-4 receives a single dose per day. The reference group 5 receives sildenafil twice a day. Food and water are given ad libitum. Daily observation of the behaviour and general health status of the animals is done. Weekly body weight is taken.
Surgical Instrumentation and Measurement of Hemodynamic and Functional Parameters in Efficacy Study Animals • 1. On the selected day of surgery, rats are anaesthetized with a mixture of 2 to 2.5% isoflurane USP (Abbot Laboratories, Montreal, Canada) in oxygen, and placed on a heating pad to maintain body temperature. • 2. Rats are tracheotomized and immediately ventilated by means of a positive-pressure rodent respirator set at ≈10 ml/kg body weight at a frequency of 65-70 strokes/min. • 3. Lead II ECG contact electrodes is placed on the rat to continuously monitor the ECG during the surgical procedure. • 4. A cannula connected to a pressure transducer is inserted into the left femoral artery to measure the arterial blood pressure. • 5. A cannula connected to a pressure transducer is inserted into the right atria through the right jugular vein to measure the right atria pressure. • 6. The heart is exposed through a sternotomy and a 20GA 1.16 in Insyte is introduced into the right ventricle and rapidly hooked up to a saline filled PE-50 catheter connected to a transducer. • 7. Following a few seconds of right ventricular pressure recording, the Insyte is further advanced into the pulmonary artery to allow PAP recording for an additional 60 seconds. • 8. Hemodynamic parameters are recorded continuously for the duration of the procedure or until loss of PAP signal. • 9. Following hemodynamic monitoring, chest cavity is further opened to expose the lung. The muscle over the trachea is dissected away to remove the lungs and heart. Harvested tissue is rinsed with PBS to remove any excess of blood before to be weighed. • 10. For the histology and casting of the lungs, the process is as follows; 1) eight (8) rats per group is reserved to assess the histology of the left lung and is therefore be treated as described in point 12 of this section 8.2; 2) Two (2) rats per group serve to enable quantitative characterization of the three-dimensional vascular structure of the left lung and therefore is treated as described in section 8.3 for casting of the left lung. • 11. For histology, the left lobe is inflated using a 10 mL syringe filled with fixative (10% NBF) with attached blunt tip needle (23 g). Needle tip is inserted into the trachea, held in place with tied suture while another syringe is tied to the pulmonary artery. The lung is inflated gently at physiological pressure (20-25 mmHg) until all lobes are fully, uniformly, and consistently expanded (not allowing fixative to ooze through lung surface). This provides optimal vascular and airway expansion without causing excessive tissue disruption. […]

Structures are written as SMILES.

Take `CCCc1nn(C)c2c(=O)[nH]c(-c3cc(S(=O)(=O)N4CCN(C)CC4)ccc3OCC)nc12` [Sildenafil, reference compound]: the “Mean Pulmonary Pressure” value in test [1] is listed as 18.9 mmHg; with Sugen hypoxia model (female rats), 22.5 mmHg; with Sugen hypoxia model (male rats), 30.1 mmHg.
